Laboratory results published in patent US8883782B2, “Spiro-tetracyclic ring compounds as beta-secretase modulators and methods of use” (Amgen Inc., priority 2010, dated 2014).

Target: Beta Secretase enzyme (BACE) (Homo sapiens, UniProt P56817)
Experiment: In vitro enzymatic BACE FRET (fluorescence resonance energy transfer) assay
Assay type: biochemical
Conditions: BACE 1 FRET assay (uM)
Procedure: In Vitro Enzymatic Bace Fret (Fluorescence Resonance Energy Transfer) Assay (Enzyme Assay Data in the Example Table I)
The assay buffer used in this screen is 0.05 M acetate, pH 4.2, 10% DMSO final, 100 uM genapol (which is a nonionic detergent, below its Critical Micelle Concentration). […] This assay is effectively started by the addition of FRET substrate (50 nM) and the combination is incubated for one hour. The FRET assay is terminated with by addition of Tris buffer, which raises the pH to neutrality, and the fluorescence is determined. The FRET substrate is a peptide with commercially available fluorophore and quencher, on opposite sides of the BACE cleavage site.

Sequence of Beta Secretase enzyme (BACE) (P56817 46-501, species assumed): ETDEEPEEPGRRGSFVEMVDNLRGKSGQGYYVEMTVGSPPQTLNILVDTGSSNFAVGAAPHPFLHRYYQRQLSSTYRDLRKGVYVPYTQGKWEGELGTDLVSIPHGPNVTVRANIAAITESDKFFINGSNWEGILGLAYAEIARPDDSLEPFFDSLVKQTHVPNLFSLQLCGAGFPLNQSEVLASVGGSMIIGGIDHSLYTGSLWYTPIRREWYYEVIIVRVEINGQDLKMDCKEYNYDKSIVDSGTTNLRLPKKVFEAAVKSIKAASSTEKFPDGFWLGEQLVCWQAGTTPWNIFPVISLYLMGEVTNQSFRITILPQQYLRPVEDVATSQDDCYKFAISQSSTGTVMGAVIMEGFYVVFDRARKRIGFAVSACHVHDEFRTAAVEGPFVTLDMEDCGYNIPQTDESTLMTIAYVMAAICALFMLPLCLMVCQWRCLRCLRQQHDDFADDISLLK

Compound	IC50 [µM]
NC1=N[C@@]2(CO1)c1cc(-c3cccnc3F)ccc1Oc1cnc(N3CCC(F)(F)CC3)cc12 [Example 137, (S)-3-(4,4-difluoropiperidin-1-yl)-7-(2-fluoropyridin-3-yl)-5′H-spiro[chromeno[2,3-c]pyridine-5,4′-oxazol]-2′-amine]	0.0007
NC1=N[C@@]2(CO1)c1cc(-c3cccnc3F)ccc1Oc1cnc(N3CCC(F)(F)C3)cc12 [Example 140, (S)-3-(3,3-difluoropyrrolidin-1-yl)-7-(2-fluoropyridin-3-yl)-5′H-spiro[chromeno[2,3-c]pyridine-5,4′-oxazol]-2′-amine]	0.0006
NC1=N[C@@]2(CO1)c1cc(-c3cccnc3F)ccc1Oc1cnc(N3CCOCC3)cc12 [Example 890, (5S)-7-(2-fluoro-3-pyridinyl)-3-(4-morpholinyl)spiro[chromeno[2,3-c]pyridine-5,4′-[1,3]oxazol]-2′-amine]	0.0013

Same assay, conditions: average IC50, enzyme assay; read-out: BACE 1 FRET assay

Compound	IC50 [µM]
(4S)-4′-fluoro-7′-(2-fluoro-3-pyridinyl)-2′-(2-oxa-6-azaspiro[3.4]oct-6-yl)spiro[1,3-oxazole-4,9′-xanthen]-2-amine [Example 857]	< 0.002
NC1=N[C@@]2(CO1)c1cc(-c3c(F)ccnc3F)ccc1Oc1c(F)cc(C3=CCOCC3)cc12 [Example 565, (4S)-7′-(2,4-difluoro-3-pyridinyl)-2′-(3,6-dihydro-2H-pyran-4-yl)-4′-fluoro spiro[1,3-oxazole-4,9′-xanthen]-2-amine]	0.002
NC1=N[C@]2(CS1)c1cc(-c3cccc(C4=CCOCC4)c3)ccc1Oc1cnc(C3=CCOCC3)cc12 [Example 596, (5R)-3-(3,6-dihydro-2H-pyran-4-yl)-7-(3-(3,6-dihydro-2H-pyran-4-yl)phenyl)spiro[chromeno[2,3-c]pyridine-5,4′-[1,3]thiazol]-2′-amine]	0.0478
NC1=N[C@@]2(CO1)c1cc(-c3cncc(F)c3)ccc1Oc1c(F)cc([C@@H]3CCOC3)cc12 [Example 297, (4S)-4′-fluoro-7′-(5-fluoro-3-pyridinyl)-2′-((3S)-tetrahydro-3-furanyl)spiro[1,3-oxazole-4,9′-xanthen]-2-amine]	0.0052
(4S)-4′-fluoro-7′-(2-fluoro-3-pyridinyl)-2′-(6-methoxy-3-pyridinyl)spiro[1,3-oxazole-4,9′-xanthen]-2-amine [Example 224]	0.002
NC1=N[C@@]2(CS1)c1cc(-c3cccnc3F)ccc1Oc1ncc(-c3cccnc3F)cc12 [Example 587, (5S)-3,7-bis (2-fluoro-3-pyridinyl)spiro[chromeno[2,3-b]pyridine-5,4′-[1,3]thiazol]-2′-amine]	0.002
NC1=N[C@]2(CO1)c1cc(-c3cccc(Cl)c3)ccc1Oc1cnc(N3CCC(F)(F)C3)cc12 [Example 433, (5R)-7-(3-chlorophenyl)-3-(3,3-difluoro-1-pyrrolidinyl)spiro[chromeno[2,3-c]pyridine-5,4′-[1,3]oxazol]-2′-amine]	0.025
CC(C)(C#N)COc1cc(F)c2c(c1)[C@]1(COC(N)=N1)c1cc(-c3c(F)ccnc3F)ccc1O2 [Example 566, 3-(((4S)-2-amino-7′-(2,4-difluoro-3-pyridinyl)-4′-fluorospiro[1,3-oxazole-4,9′-xanthen]-2′-yl)oxy)-2,2-dimethylpropanenitrile]	0.002
NC1=N[C@@]2(CS1)c1cc(-c3cncc(F)c3)ccc1Oc1cnc(Cl)cc12 [Example 595, (5S)-3-chloro-7-(5-fluoro-3-pyridinyl)spiro[chromeno[2,3-c]pyridine-5,4′-[1,3]thiazol]-2′-amine]	0.142

The remaining lines, values ahead:

IC50 [µM]	Compound
0.0261	NC1=N[C@@]2(CO1)c1cc(-c3ccnc(F)c3)ccc1Oc1cnc(C3=CCOCC3)cc12 [Example 547, (5S)-3-(3,6-dihydro-2H-pyran-4-yl)-7-(2-fluoro-4-pyridinyl)spiro[chromeno[2,3-c]pyridine-5,4′-[1,3]oxazol]-2′-amine]
0.0072	NC1=N[C@@]2(CO1)c1cc(-c3cncc(F)c3)ccc1Oc1c(F)cc([C@H]3CCOC3)cc12 [Example 296, (4S)-4′-fluoro-7′-(5-fluoro-3-pyridinyl)-2′-((3R)-tetrahydro-3-furanyl)spiro[1,3-oxazole-4,9′-xanthen]-2-amine]
0.0531	NC1=N[C@@]2(CS1)c1cc(-c3cccnc3F)ccc1Oc1cnc(Cl)cc12 [Example 594, (5S)-3-chloro-7-(2-fluoro-3-pyridinyl)spiro[chromeno[2,3-c]pyridine-5,4′-[1,3]thiazol]-2′-amine]
0.0316	NC1=N[C@@]2(CS1)c1cc(-c3cccc(Cl)c3)ccc1Oc1cnc(Cl)cc12 [Example 593, (5S)-3-chloro-7-(3-chlorophenyl)spiro[chromeno[2,3-c]pyridine-5,4′-[1,3]thiazol]-2′-amine]
0.0172	NC1=N[C@@]2(CO1)c1cc(-c3ccccc3)ncc1Oc1c(F)cc(C3=CCOCC3)cc12 [Example 309, (5S)-7-(3,6-dihydro-2H-pyran-4-yl)-9-fluoro-3-phenylspiro[chromeno[2,3-c]pyridine-5,4′-[1,3]oxazol]-2′-amine]
0.002	NC1=N[C@@]2(CO1)c1cc(-c3cccnc3F)ccc1Oc1c2cc(-c2ccnc(F)c2)nc1F [Example 152, (5S)-1-fluoro-7-(2-fluoro-3-pyridinyl)-3-(2-fluoro-4-pyridinyl)spiro[chromeno[2,3-c]pyridine-5,4′-[1,3]oxazol]-2′-amine]
0.029	NC1=N[C@@]2(CO1)c1cc(-c3cc(F)cnc3F)ccc1Oc1cnc(-c3ccnc(F)c3)cc12 [Example 549, (5S)-7-(2,5-difluoro-3-pyridinyl)-3-(2-fluoro-4-pyridinyl)spiro[chromeno[2,3-c]pyridine-5,4′-[1,3]oxazol]-2′-amine]
0.002	NC1=N[C@@]2(CO1)c1cc(-c3cccc(Cl)c3)ccc1Oc1cnc(N3CCC(F)(F)C3)cc12 [Example 432, (5S)-7-(3-chlorophenyl)-3-(3,3-difluoro-1-pyrrolidinyl)spiro[chromeno[2,3-c]pyridine-5,4′-[1,3]oxazol]-2′-amine]
0.002	CC(C)(C)C#Cc1cc2c(cn1)Oc1ccc(-c3c(F)ccnc3F)cc1[C@@]21COC(N)=N1 [Example 165, (5S)-7-(2,4-difluoro-3-pyridinyl)-3-(3,3-dimethyl-1-butyn-1-yl)spiro[chromeno[2,3-c]pyridine-5,4′-[1,3]oxazol]-2′-amine]
0.0709	NC1=N[C@@]2(CO1)c1cc(-c3ccc(F)cc3)ccc1Oc1cnc(C3CCOCC3)cc12 [Example 400, (5S)-7-(4-fluorophenyl)-3-(tetrahydro-2H-pyran-4-yl)spiro[chromeno[2,3-c]pyridine-5,4′-[1,3]oxazol]-2′-amine]

Test system: Aβ40 in conditioned medium of cells stably expressing Amyloid Precursor Protein (APP)
Experiment: In vitro BACE cell-based assay (Aβ40 in conditioned medium, sandwich ELISA)
Conditions: Homo sapiens, HEK293, average IC50, HEK cells; read-out: HEK cell assay
Procedure: In Vitro BACE Cell-Based Assay
The cell-based assay measures inhibition or reduction of Aβ40 in conditioned medium of test compound treated cells expressing amyloid precursor protein.
Cells stably expressing Amyloid Precursor Protein (APP) were plated at a density of 40K cells/well in 96 well plates (Costar). The cells were cultivated for 24 hours at 37° C. and 5% CO2 in DMEM supplemented with 10% FBS. The test compounds were then added to cells in 10-point dose response concentrations with the starting concentration being either 100 μM or 10 μM. The compounds were diluted from stock solutions in DMSO and the final DMSO concentration of the test compounds on cells was 0.1%. […] The IC50 of the compound was calculated from the percent of control or percent inhibition of Aβ 40 as a function of the concentration of the test compound.
The sandwich ELISA to detect Aβ 40 was performed in 96 well microtiter plates, which were pre-treated with goat anti-rabbit IgG (Pierce). The capture and detecting antibody pair that were used to detect Aβ 40 from cell supernatants were affinity purified pAb40 (Biosource) and biotinylated 6E10 (Signet Labs Inc.), respectively. The optimal concentration for the pAb40 antibody was 3 μg/ml in Superblock/TBS (Pierce) that was supplemented with 0.05% Tween 20 (Sigma).
Cellular supernatants were incubated with the capture antibody for 3 h at 4° C., followed by 3 wash steps in TBS-tween (0.05%). The detecting antibody incubation was for 2 h at 4° C., again followed by the wash steps as described previously. The final readout of the ELISA is Time-Resolved Fluorescence (counts per minute) using Delfia reagents Streptavidin-Europium and Enhancement solutions (Perkin Elmer) and the Victor 2 multilabel counter (Perkin Elmer).

Compound	IC50 [nM]
NC1=N[C@@]2(CO1)c1cc(-c3cccnc3F)ccc1Oc1ncc(C3=CCOCC3)cc12 [Example 460, (5S)-3-(3,6-dihydro-2H-pyran-4-yl)-7-(2-fluoro-3-pyridinyl)spiro[chromeno[2,3-b]pyridine-5,4′-[1,3]oxazol]-2′-amine]	6.5
NC1=N[C@@]2(CS1)c1cc(-c3cccnc3F)ccc1Oc1cnc(-c3ccnc(F)c3)cc12 [Example 589, (5S)-7-(2-fluoro-3-pyridinyl)-3-(2-fluoro-4-pyridinyl)spiro[chromeno[2,3-c]pyridine-5,4′-[1,3]thiazol]-2′-amine]	39

Same assay, conditions: Homo sapiens, HEK293, average IC50; read-out: HEK cell assay

Compound	IC50 [nM]
NC1=N[C@@]2(CO1)c1cc(-c3cccnc3F)ccc1Oc1c(F)cc(N3CC[C@H](F)C3)cc12 [Example 280, (S)-4′-fluoro-7′-(2-fluoropyridin-3-yl)-2′-((S)-3-fluoropyrrolidin-1-yl)-5H-spiro[oxazole-4,9′-xanthen]-2-amine]	6.9
NC1=N[C@@]2(CO1)c1cc(-c3cncc(C#CCO)c3)ccc1Oc1cnc(C3=CCOCC3)cc12 [Example 826, 3-(5-((5S)-2′-amino-3-(3,6-dihydro-2H-pyran-4-yl)spiro[chromeno[2,3-c]pyridine-5,4′-[1,3]oxazol]-7-yl)-3-pyridinyl)-2-propyn-1-ol]	2
NC1=N[C@@]2(CO1)c1cc(-c3cccnc3F)ccc1Oc1c(F)cc(N3CCOCC3)cc12 [Example 139, (S)-4′-fluoro-7′-(2-fluoropyridin-3-yl)-2′-morpholino-5H-spiro[oxazole-4,9′-xanthen]-2-amine]	5.2

Same assay, conditions: average IC50; read-out: HEK cell assay

Compound	IC50 [nM]
(4S)-7′-bromo-4′-fluoro-2′-methoxyspiro[1,3-thiazole-4,9′-xanthen]-2-amine [Example 218]	128
